Paper PMC8526855, “Gambogenic Acid Induces Endoplasmic Reticulum Stress in Colorectal Cancer via the Aurora A Pathway” (Frontiers in Cell and Developmental Biology, 2021)

Molecular target: T1, Aurora A (Homo sapiens, UniProt O14965)
T1 construct: gene AURKA
T1 sequence (O14965 1-403): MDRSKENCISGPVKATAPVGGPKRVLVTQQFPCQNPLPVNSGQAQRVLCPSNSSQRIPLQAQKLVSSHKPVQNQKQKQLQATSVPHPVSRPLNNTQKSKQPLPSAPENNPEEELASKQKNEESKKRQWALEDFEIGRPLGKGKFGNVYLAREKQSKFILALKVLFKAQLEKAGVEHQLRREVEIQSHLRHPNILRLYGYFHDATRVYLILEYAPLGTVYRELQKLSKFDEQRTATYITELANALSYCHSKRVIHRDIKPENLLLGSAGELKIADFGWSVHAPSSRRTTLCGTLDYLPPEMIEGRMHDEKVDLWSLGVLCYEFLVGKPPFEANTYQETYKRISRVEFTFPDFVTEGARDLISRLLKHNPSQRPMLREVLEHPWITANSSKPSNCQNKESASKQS
Experiment: microfluidic mobility shift kinase assay; also cellular thermal shift assay (Aurora A levels reduced with GNA at […]°C)
Type: biochemical

`CC(C)=CCC/C(C)=C/Cc1c(O)c(CC=C(C)C)c2c(c1O)C(=O)C1=C[C@@H]3C[C@H]4C(C)(C)O[C@@](C/C=C(/C)C(=O)O)(C3=O)[C@@]14O2` [GNA, gambogenic acid] was tested, and the IC50 was 1.42 µM.
